From ChEMBL document CHEMBL4507291 (2021)

How the values were obtained:
[1] = biological target: C-X-C chemokine receptor type 2 (Homo sapiens) (UniProt P25025); assay: Inhibition of Chemokine CXCR2 (IL-8RB) at 10 µM in the Eurofins-Panlabs radioligand binding assay (Eurofins_assay_244500); details: Compound concentration 10.0 uM
[2] = biological target: Melanocortin receptor 5 (Homo sapiens) (UniProt P33032); assay: Inhibition of Melanocortin MC5 at 10 µM in the Eurofins-Panlabs radioligand binding assay (Eurofins_assay_251400); parameters: ligand concentration 0.035 nM; details: Compound concentration 10.0 uM
Chain of Melanocortin receptor 5 (Homo sapiens) (P33032 whole entry): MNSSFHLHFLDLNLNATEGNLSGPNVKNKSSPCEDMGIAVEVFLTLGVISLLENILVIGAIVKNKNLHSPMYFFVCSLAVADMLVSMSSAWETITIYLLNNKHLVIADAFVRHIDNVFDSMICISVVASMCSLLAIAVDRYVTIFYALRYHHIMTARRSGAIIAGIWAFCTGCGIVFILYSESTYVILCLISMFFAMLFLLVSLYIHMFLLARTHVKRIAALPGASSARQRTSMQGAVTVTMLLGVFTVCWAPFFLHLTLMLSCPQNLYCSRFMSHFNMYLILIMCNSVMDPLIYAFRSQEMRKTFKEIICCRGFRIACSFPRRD

[3] = biological target: Cyclin-dependent kinase 5/CDK5 activator 1 (Homo sapiens) (UniProt Q00535+Q15078); assay: CDK5/p35 Kinase screen; assay type: protein-complex assay; details: Compound concentration 1.0 uM
Chain of Cyclin-dependent kinase 5/CDK5 activator 1 (Homo sapiens) (Q00535 whole entry): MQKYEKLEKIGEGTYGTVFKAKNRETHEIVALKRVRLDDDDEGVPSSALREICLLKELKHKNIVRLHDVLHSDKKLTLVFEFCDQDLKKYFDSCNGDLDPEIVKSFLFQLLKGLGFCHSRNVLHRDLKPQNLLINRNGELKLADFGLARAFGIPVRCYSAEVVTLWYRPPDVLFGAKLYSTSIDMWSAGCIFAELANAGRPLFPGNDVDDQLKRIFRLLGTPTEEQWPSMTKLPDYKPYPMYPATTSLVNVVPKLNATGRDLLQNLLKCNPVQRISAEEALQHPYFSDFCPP
Chain of Cyclin-dependent kinase 5/CDK5 activator 1 (Homo sapiens) (Q15078 99-307 partner limits assumed): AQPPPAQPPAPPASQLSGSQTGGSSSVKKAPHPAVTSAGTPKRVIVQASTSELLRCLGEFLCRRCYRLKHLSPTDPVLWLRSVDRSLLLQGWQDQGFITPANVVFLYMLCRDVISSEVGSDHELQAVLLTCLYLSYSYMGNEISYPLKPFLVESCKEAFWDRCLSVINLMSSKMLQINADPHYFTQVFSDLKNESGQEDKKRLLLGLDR

[4] = biological target: Dual specificity protein kinase CLK1 (Homo sapiens) (UniProt P49759); assay: CLK1 Kinase screen; details: Compound concentration 1.0 uM
Chain of Dual specificity protein kinase CLK1 (Homo sapiens) (P49759 whole entry, looked up): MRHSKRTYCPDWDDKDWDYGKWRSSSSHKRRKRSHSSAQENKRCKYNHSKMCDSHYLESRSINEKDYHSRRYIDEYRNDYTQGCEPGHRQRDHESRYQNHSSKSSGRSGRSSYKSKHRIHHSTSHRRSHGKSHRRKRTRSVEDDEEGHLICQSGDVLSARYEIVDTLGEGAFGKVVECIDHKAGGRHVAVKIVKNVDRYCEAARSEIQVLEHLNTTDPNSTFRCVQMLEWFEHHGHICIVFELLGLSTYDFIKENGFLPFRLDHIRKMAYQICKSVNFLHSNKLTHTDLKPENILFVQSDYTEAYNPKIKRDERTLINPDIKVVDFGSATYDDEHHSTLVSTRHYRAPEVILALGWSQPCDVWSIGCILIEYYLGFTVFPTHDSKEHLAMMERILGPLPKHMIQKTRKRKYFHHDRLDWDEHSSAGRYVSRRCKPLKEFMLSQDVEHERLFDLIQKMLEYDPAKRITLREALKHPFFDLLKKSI

[5] = biological target: T1, Ephrin type-B receptor 1 (Homo sapiens) (UniProt P54762); assay: EPHB1 Kinase screen; details: Compound concentration 1.0 uM
T1 sequence (whole entry): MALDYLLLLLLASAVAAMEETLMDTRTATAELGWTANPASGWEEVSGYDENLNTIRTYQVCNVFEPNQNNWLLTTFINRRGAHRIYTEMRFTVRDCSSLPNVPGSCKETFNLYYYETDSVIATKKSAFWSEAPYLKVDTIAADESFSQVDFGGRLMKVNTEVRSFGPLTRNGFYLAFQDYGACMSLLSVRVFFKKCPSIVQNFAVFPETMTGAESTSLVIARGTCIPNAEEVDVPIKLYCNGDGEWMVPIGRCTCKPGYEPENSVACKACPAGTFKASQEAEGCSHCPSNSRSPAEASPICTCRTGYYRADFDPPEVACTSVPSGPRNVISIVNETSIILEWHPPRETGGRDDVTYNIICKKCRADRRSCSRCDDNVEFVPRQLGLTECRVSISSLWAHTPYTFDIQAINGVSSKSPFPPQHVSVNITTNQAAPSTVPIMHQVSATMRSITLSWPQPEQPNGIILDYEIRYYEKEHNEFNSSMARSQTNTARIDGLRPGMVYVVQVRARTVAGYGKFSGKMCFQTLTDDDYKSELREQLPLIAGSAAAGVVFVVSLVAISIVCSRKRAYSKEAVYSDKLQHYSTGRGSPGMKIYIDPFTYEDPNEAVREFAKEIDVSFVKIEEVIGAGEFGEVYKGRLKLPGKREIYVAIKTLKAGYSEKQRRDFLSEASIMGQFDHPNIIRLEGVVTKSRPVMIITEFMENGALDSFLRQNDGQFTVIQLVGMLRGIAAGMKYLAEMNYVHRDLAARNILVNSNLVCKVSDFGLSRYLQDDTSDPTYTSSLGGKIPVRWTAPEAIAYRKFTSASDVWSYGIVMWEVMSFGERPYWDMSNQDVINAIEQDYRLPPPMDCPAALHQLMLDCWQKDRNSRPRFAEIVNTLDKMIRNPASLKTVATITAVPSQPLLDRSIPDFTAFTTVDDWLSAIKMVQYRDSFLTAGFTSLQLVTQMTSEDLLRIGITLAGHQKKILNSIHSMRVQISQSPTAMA

[6] = biological target: Fibroblast growth factor receptor 4 (Homo sapiens) (UniProt P22455); assay: FGFR4 Kinase screen; details: Compound concentration 1.0 uM
Chain of Fibroblast growth factor receptor 4 (Homo sapiens) (P22455 22-802 limits assumed): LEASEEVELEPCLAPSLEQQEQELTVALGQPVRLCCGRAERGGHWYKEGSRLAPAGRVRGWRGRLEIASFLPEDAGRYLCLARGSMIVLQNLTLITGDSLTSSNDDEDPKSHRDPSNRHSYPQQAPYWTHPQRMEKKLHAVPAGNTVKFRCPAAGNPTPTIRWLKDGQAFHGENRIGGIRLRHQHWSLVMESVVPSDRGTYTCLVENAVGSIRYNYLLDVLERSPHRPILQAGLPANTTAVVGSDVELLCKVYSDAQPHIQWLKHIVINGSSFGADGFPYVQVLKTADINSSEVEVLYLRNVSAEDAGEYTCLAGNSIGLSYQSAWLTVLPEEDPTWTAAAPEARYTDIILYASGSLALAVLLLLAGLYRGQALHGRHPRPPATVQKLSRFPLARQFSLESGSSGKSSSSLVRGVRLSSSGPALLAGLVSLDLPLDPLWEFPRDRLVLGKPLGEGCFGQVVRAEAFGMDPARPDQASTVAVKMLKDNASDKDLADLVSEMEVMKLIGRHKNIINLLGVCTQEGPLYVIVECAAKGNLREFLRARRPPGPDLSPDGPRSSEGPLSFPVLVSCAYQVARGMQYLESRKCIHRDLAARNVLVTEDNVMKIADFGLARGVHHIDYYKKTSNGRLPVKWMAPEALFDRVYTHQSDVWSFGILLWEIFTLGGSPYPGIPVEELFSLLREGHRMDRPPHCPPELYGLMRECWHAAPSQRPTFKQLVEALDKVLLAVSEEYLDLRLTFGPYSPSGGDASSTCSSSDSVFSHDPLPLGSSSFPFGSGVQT

[7] = biological target: G protein-coupled receptor kinase 6 (Homo sapiens) (UniProt P43250); assay: GRK6 Kinase screen; details: Compound concentration 1.0 uM
[8] = biological target: LIM domain kinase 1 (Homo sapiens) (UniProt P53667); assay: LIMK1 Kinase screen; details: Compound concentration 1.0 uM
Chain of LIM domain kinase 1 (Homo sapiens) (P53667 whole entry, looked up, the tested form may be a part): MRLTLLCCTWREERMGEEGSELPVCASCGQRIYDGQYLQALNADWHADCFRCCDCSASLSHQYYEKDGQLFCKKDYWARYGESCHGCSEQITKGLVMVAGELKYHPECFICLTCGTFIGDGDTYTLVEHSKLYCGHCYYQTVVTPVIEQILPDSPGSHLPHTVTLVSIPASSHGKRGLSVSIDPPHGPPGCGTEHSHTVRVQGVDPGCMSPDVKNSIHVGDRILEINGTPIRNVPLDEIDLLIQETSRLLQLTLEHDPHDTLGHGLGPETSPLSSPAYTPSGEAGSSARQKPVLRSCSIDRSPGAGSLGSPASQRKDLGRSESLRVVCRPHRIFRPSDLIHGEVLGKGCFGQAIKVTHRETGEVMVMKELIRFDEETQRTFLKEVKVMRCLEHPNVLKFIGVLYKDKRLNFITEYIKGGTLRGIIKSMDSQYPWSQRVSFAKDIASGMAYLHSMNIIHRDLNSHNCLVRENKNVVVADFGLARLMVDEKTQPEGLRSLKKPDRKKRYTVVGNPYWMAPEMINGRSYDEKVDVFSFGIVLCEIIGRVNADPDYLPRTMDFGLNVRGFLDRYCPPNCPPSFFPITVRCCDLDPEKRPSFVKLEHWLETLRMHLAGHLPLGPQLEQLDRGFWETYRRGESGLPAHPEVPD

[9] = biological target: Serine/threonine-protein kinase PAK 1 (Homo sapiens) (UniProt Q13153); assay: PAK1 Kinase screen; details: Compound concentration 1.0 uM
Chain of Serine/threonine-protein kinase PAK 1 (Homo sapiens) (Q13153 whole entry): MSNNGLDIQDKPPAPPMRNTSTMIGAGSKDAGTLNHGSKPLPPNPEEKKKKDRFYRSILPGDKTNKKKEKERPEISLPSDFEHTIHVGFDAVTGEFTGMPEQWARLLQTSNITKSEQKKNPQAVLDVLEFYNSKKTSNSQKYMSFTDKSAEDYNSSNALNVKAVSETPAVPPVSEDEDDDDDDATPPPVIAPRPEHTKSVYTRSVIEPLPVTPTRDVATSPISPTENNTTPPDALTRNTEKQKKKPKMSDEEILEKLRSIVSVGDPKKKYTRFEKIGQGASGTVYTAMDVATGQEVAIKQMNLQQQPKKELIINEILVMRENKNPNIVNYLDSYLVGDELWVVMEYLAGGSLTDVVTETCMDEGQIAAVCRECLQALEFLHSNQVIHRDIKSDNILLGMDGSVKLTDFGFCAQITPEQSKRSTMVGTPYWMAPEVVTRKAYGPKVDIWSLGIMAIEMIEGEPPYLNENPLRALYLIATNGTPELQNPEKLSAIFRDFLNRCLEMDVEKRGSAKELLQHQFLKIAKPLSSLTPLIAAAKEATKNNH

[10] = biological target: Phosphatidylinositol 4-kinase beta (Homo sapiens) (UniProt Q9UBF8); assay: PI4KB (PI4K beta) Kinase screen; details: Compound concentration 1.0 uM
Chain of Phosphatidylinositol 4-kinase beta (Homo sapiens) (Q9UBF8 2-816 limits assumed): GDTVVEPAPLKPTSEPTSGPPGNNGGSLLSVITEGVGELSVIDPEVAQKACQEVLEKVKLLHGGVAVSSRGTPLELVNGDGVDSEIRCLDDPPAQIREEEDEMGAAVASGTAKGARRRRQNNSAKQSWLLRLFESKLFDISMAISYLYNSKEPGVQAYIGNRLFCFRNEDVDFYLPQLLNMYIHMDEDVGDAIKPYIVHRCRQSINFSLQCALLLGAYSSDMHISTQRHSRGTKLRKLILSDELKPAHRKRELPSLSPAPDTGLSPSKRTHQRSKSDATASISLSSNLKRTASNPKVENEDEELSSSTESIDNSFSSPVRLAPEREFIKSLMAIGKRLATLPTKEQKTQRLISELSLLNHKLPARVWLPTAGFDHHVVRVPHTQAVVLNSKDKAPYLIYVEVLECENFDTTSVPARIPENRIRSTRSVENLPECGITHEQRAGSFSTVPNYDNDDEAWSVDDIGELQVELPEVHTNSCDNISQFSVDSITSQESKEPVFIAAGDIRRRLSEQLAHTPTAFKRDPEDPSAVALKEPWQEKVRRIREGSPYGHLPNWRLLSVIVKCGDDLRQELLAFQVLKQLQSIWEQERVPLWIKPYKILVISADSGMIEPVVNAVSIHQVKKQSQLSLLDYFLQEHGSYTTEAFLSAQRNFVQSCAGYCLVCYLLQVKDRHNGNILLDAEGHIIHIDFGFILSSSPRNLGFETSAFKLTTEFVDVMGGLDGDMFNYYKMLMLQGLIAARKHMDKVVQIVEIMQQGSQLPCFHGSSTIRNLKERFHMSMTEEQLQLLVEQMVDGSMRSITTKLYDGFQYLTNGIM

[11] = biological target: T2, Serine/threonine-protein kinase D3 (Homo sapiens) (UniProt O94806); assay: PRKCN (PKD3) Kinase screen; details: Compound concentration 1.0 uM
T2 sequence (whole entry): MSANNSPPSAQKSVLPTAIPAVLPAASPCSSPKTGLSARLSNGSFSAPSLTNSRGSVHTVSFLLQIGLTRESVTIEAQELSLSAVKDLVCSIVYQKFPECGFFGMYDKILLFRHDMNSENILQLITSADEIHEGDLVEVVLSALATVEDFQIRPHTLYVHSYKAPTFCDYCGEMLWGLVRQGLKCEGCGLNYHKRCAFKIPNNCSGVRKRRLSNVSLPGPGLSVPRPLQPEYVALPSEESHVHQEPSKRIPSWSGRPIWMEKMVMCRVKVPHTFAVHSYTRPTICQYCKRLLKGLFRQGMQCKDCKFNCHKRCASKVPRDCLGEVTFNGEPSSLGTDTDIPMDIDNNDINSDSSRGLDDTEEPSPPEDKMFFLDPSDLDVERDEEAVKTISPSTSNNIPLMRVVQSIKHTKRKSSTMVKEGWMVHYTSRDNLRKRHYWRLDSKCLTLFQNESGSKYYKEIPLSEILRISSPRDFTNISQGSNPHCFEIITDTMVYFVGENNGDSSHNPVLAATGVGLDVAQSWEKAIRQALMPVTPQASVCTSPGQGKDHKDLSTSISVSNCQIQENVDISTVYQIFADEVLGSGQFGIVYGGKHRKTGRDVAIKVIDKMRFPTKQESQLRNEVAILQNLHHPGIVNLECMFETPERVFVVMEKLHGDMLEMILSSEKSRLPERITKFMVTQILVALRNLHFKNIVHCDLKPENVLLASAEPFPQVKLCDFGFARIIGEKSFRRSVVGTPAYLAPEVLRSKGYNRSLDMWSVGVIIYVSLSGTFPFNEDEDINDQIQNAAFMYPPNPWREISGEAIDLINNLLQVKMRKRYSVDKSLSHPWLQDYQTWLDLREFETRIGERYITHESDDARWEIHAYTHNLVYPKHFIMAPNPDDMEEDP

[12] = biological target: Beta-1 adrenergic receptor (Homo sapiens) (UniProt P08588); details: Compound concentration 10.0 uM
Chain of Beta-1 adrenergic receptor (Homo sapiens) (P08588 whole entry, looked up): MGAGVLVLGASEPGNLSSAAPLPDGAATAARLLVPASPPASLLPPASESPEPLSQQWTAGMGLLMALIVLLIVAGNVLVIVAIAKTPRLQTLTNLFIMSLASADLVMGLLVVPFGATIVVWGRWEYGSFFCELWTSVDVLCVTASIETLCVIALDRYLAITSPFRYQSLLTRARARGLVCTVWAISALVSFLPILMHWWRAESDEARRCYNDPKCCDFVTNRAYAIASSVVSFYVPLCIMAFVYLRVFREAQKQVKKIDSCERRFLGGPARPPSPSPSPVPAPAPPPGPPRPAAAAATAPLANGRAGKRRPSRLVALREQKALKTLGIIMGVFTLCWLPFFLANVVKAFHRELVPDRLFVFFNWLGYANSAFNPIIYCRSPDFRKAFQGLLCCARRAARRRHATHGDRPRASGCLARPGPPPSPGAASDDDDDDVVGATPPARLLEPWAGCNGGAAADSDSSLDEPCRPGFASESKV

[13] = biological target: Muscarinic acetylcholine receptor M3 (Homo sapiens) (UniProt P20309); details: Compound concentration 10.0 uM

Measured: inhibition

Chain of C-X-C chemokine receptor type 2 (Homo sapiens) (P25025 whole entry): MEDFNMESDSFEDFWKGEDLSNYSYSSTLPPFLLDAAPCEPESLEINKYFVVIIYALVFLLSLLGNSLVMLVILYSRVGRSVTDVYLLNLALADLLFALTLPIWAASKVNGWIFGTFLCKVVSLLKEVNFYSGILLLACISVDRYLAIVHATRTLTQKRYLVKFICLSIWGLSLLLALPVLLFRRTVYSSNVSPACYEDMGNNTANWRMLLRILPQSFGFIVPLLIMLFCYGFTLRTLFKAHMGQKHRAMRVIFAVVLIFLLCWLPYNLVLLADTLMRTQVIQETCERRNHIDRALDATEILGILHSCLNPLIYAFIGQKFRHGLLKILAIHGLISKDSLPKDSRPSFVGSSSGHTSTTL

C[C@@H]1CN(c2cc(-c3n[nH]c4ccc(OC5(C)CC5)cc34)ncn2)C[C@H](C)O1 [MLi-2]
inactive: [1] 1% | [2] -3% | [3] -0.531% | [4] 15.7% | [5] 3.46% | [6] 14.8% | [7] 6.63% | [8] 11% | [9] 6.76% | [10] 1.46% | [11] 21.1% | [12] -7% | [13] 26%
